{"source": "patent US20260297070A1", "about": "“CYCLIC [COMPOUND LEFT OUT] WRN INHIBITORS” (Nimbus Wadjet, Inc., priority 2023, published 2026)", "data": [{"molecular_target": "T1, human Werner helicase (WRN-BV08, Uniprot Q14191, amino acids 517-1235 with L1074F point mutation) (Homo sapiens, UniProt Q14191, L1074F)", "T1 construct": "Uniprot Q14191, amino acids 517-1235 with L1074F point mutation; TEV-cleavable 8×His (C, cleaved yes); made in house; host or cells: Sf9 insect cells (baculovirus)", "T1 sequence (Q14191 with tags, fused parts or gaps L1074F limits assumed)": "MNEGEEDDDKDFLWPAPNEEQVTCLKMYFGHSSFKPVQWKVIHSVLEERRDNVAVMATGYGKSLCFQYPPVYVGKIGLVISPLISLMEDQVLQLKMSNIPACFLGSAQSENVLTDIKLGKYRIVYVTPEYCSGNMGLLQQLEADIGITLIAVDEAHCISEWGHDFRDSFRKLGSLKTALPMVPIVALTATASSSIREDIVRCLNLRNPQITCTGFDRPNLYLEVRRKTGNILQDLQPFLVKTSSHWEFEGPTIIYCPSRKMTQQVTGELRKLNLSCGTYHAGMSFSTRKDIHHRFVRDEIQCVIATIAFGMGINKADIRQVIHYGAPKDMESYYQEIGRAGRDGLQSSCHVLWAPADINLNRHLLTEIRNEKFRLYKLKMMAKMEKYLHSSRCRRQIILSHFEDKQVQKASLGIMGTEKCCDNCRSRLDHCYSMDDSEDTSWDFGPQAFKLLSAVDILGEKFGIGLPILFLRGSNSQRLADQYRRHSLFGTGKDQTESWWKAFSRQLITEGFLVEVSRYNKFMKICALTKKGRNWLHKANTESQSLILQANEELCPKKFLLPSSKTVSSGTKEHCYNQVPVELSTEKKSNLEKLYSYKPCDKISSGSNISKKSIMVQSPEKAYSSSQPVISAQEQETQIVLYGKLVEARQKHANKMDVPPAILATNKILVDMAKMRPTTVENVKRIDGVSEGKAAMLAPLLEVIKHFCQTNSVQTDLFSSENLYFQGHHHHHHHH", "assay": "WRN (BV08) ADP-Glo Assay", "format": "biochemical", "settings": "0.15 nM WRN, 5 μM ATP, 0.1 nM DNA duplex, 15 min preincubation, 60 min at 25° C., pH 7.5, 1% DMSO; read-out: ADP-Glo_hWRN_IC50", "summary_of_the_method": "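WRN 0.15 nM + cpd, 15 min 25 °C; add 5 μM ATP / 0.1 nM annealed DNA duplex; 60 min 25 °C; ADP-Glo stop, RLU. Buffer 20 mM Bicine pH 7.5, 1 mM MgCl2, 10 mM KCl, 1 mM TCEP. IC50, 4-parameter fit.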", "units": {"IC50": "µM"}, "values": [{"smiles": "O=C(C1CCc2cc(Cl)ccc2O1)N(Cc1ccncc1)C1C=CS(=O)(=O)C1", "note": "(stereo not drawn) [I-653, 6-chloro-N-(1,1-dioxo-2,3-dihydro-1lambda6-thiophen-3-yl)-N-[(pyridin-4-yl)methyl]-3,4-dihydro-2H-1-benzopyran-2-carboxamide]", "IC50": "> 50"}, {"smiles": "O=C(C1CCC2(CCC2)CO1)N(Cc1ccncc1)C1C=CS(=O)(=O)C1", "note": "(stereo not drawn) [I-654, N-(1,1-dioxo-2,3-dihydro-1lambda6-thiophen-3-yl)-N-[(pyridin-4-yl)methyl]-6-oxaspiro[3.5]nonane-7-carboxamide]", "IC50": "> 50"}, {"smiles": "Cn1cc2cc(CC(=O)N(Cc3ccncc3)C3C=CS(=O)(=O)C3)ccc2n1", "note": "(stereo not drawn) [I-656, N-(1,1-dioxo-2,3-dihydro-1lambda6-thiophen-3-yl)-2-(2-methyl-2H-indazol-5-yl)-N-[(pyridin-4-yl)methyl]acetamide]", "IC50": "> 50"}, {"smiles": "O=C(Cc1ccc(S(F)(F)(F)(F)F)cc1)N(Cc1cscn1)C1C=CS(=O)(=O)C1", "note": "(stereo not drawn) [I-657, N-(1,1-dioxo-2,3-dihydro-1lambda6-thiophen-3-yl)-2-[4-(pentafluoro-lambda6-sulfanyl)phenyl]-N-[(1,3-thiazol-4-yl)methyl]acetamide]", "IC50": "0.5 to 5"}, {"smiles": "O=C(C1CCc2ccc(Br)cc21)N(Cc1ccncc1)C1C=CS(=O)(=O)C1", "note": "(stereo not drawn) [I-658, 6-bromo-N-(1,1-dioxo-2,3-dihydro-1lambda6-thiophen-3-yl)-N-[(pyridin-4-yl)methyl]-2,3-dihydro-1H-indene-1-carboxamide]", "IC50": "> 50"}, {"smiles": "CC(C)c1csc(CN(C(=O)Cc2ccc(S(F)(F)(F)(F)F)cc2)C2C=CS(=O)(=O)C2)n1", "note": "(stereo not drawn) [I-659, N-(1,1-dioxo-2,3-dihydro-1lambda6-thiophen-3-yl)-2-[4-(pentafluoro-lambda6-sulfanyl)phenyl]-N-{[4-(propan-2-yl)-1,3-thiazol-2-yl]methyl}acetamide]", "IC50": "< 0.5"}, {"smiles": "COc1cc(CN(C(=O)Cn2ccc(-c3ccc(F)cc3)cc2=O)[C@@H]2C=CS(=O)(=O)C2)ccn1", "note": "[I-660, N-[(3R)-1,1-dioxo-2,3-dihydro-1lambda6-thiophen-3-yl]-2-[4-(4-fluorophenyl)-2-oxo-1,2-dihydropyridin-1-yl]-N-[(2-methoxypyridin-4-yl)methyl]acetamide]", "IC50": "< 0.5"}, {"smiles": "O=C(Cn1cc(-c2ccc(F)cc2)cn1)N(Cc1ccnc(OC(F)F)c1)C1C=CS(=O)(=O)C1", "note": "(stereo not drawn) [I-662, N-{[2-(difluoromethoxy)pyridin-4-yl]methyl}-N-(1,1-dioxo-2,3-dihydro-1lambda6-thiophen-3-yl)-2-[4-(4-fluorophenyl)-1H-pyrazol-1-yl]acetamide]", "IC50": "< 0.5"}, {"smiles": "CS(=O)(=O)N1CCN(C(=O)C(C(=O)N(Cc2ccncc2)C2C=CS(=O)(=O)C2)c2ccc(-c3ccc(F)cc3)cc2)CC1", "note": "(stereo not drawn) [I-666, N-(1,1-dioxo-2,3-dihydro-1lambda6-thiophen-3-yl)-2-{4′-fluoro-[1,1′-biphenyl]-4-yl}-3-(4-methanesulfonylpiperazin-1-yl)-3-oxo-N-[(pyridin-4-yl)methyl]propanamide]", "IC50": "5 to 10"}, {"smiles": "CC(=O)N1CCN(C(=O)C(C(=O)N(Cc2ccncc2)C2C=CS(=O)(=O)C2)c2ccc(-c3ccc(F)cc3)cc2)CC1", "note": "(stereo not drawn) [I-667, 3-(4-acetylpiperazin-1-yl)-N-(1,1-dioxo-2,3-dihydro-1lambda6-thiophen-3-yl)-2-{4′-fluoro-[1,1′-biphenyl]-4-yl}-3-oxo-N-[(pyridin-4-yl)methyl]propanamide]", "IC50": "0.5 to 5"}, {"smiles": "COc1cc(CN(C(=O)Cc2ccc(-c3ccc(F)cn3)c(O)c2)C2C=CS(=O)(=O)C2)ccn1", "note": "(stereo not drawn) [I-668, N-(1,1-dioxo-2,3-dihydro-1lambda6-thiophen-3-yl)-2-[4-(5-fluoropyridin-2-yl)-3-hydroxyphenyl]-N-[(2-methoxypyridin-4-yl)methyl]acetamide]", "IC50": "5 to 10"}, {"smiles": "O=C(C(c1ccc(-c2ccc(F)cc2)cc1)C1CC1)N(Cc1ccncc1)C1C=CS(=O)(=O)C1", "note": "(stereo not drawn) [I-677, 2-cyclopropyl-N-(1,1-dioxo-2,3-dihydro-1lambda6-thiophen-3-yl)-2-{4′-fluoro-[1,1′-biphenyl]-4-yl}-N-[(pyridin-4-yl)methyl]acetamide]", "IC50": "10 to 50"}, {"smiles": "O=C(C1CCc2cc(Br)ccc2O1)N(Cc1ccncc1)C1C=CS(=O)(=O)C1", "note": "(stereo not drawn) [I-678, 6-bromo-N-(1,1-dioxo-2,3-dihydro-1lambda6-thiophen-3-yl)-N-[(pyridin-4-yl)methyl]-3,4-dihydro-2H-1-benzopyran-2-carboxamide]", "IC50": "> 50"}, {"smiles": "O=C(Cc1ccc(S(F)(F)(F)(F)F)cc1)N(CCc1nccs1)C1C=CS(=O)(=O)C1", "note": "(stereo not drawn) [I-679, N-(1,1-dioxo-2,3-dihydro-1lambda6-thiophen-3-yl)-2-[4-(pentafluoro-lambda6-sulfanyl)phenyl]-N-[2-(1,3-thiazol-2-yl)ethyl]acetamide]", "IC50": "0.5 to 5"}, {"smiles": "O=C(Cn1c(=O)n(C2=CCCCC2)c2ccccc21)N(Cc1ccncc1)C1C=CS(=O)(=O)C1", "note": "(stereo not drawn) [I-680, 2-[3-(cyclohex-1-en-1-yl)-2-oxo-2,3-dihydro-1H-1,3-benzodiazol-1-yl]-N-(1,1-dioxo-2,3-dihydro-1lambda6-thiophen-3-yl)-N-[(pyridin-4-yl)methyl]acetamide]", "IC50": "> 50"}, {"smiles": "COc1cc(CN(C(=O)C(c2ccc(-c3ccc(F)c(F)c3)cc2F)n2cccn2)[C@@H]2C=CS(=O)(=O)C2)ccn1", "note": "(stereo partly drawn) [I-683, N-[(3R)-1,1-dioxo-2,3-dihydro-1lambda6-thiophen-3-yl]-N-[(2-methoxypyridin-4-yl)methyl]-2-(1H-pyrazol-1-yl)-2-{3,3′,4′-trifluoro-[1,1′-biphenyl]-4-yl}acetamide]", "IC50": "< 0.5"}, {"smiles": "COc1cc(CN(C(=O)Cc2ccc(S(F)(F)(F)(F)F)cc2)C2C=CS(=O)(=O)C2)cc(OC)n1", "note": "(stereo not drawn) [I-684, N-[(2,6-dimethoxypyridin-4-yl)methyl]-N-(1,1-dioxo-2,3-dihydro-1lambda6-thiophen-3-yl)-2-[4-(pentafluoro-lambda6-sulfanyl)phenyl]acetamide]", "IC50": "0.5 to 5"}, {"smiles": "COc1cc(CN(C(=O)C(OC2CCN(S(C)(=O)=O)CC2)c2ccc(-c3ccc(F)c(F)c3)cc2F)[C@@H]2C=CS(=O)(=O)C2)ccn1", "note": "(stereo partly drawn) [I-687, N-[(3R)-1,1-dioxo-2,3-dihydro-1lambda6-thiophen-3-yl]-2-[(1-methanesulfonylpiperidin-4-yl)oxy]-N-[(2-methoxypyridin-4-yl)methyl]-2-{3,3′,4′-trifluoro-[1,1′-biphenyl]-4-yl}acetamide]", "IC50": "5 to 10"}, {"smiles": "CNC(=O)C(C(=O)N(Cc1ccnc(OC)c1)[C@@H]1C=CS(=O)(=O)C1)c1ccc(-c2ccc(F)c(F)c2)cc1F", "note": "(stereo partly drawn) [I-688, N′-[(3R)-1,1-dioxo-2,3-dihydro-1lambda6-thiophen-3-yl]-N′-[(2-methoxypyridin-4-yl)methyl]-N-methyl-2-{3,3′,4′-trifluoro-[1,1′-biphenyl]-4-yl}propanediamide]", "IC50": "< 0.5"}, {"smiles": "COc1cc(CN(C(=O)C(OCC#N)c2ccc(-c3ccc(F)c(F)c3)cc2F)[C@@H]2C=CS(=O)(=O)C2)ccn1", "note": "(stereo partly drawn) [I-691, 2-(cyanomethoxy)-N-[(3R)-1,1-dioxo-2,3-dihydro-1lambda6-thiophen-3-yl]-N-[(2-methoxypyridin-4-yl)methyl]-2-{3,3′,4′-trifluoro-[1,1′-biphenyl]-4-yl}acetamide]", "IC50": "0.5 to 5"}, {"smiles": "COc1cc(CN(C(=O)C(c2ccc(-c3ccc(F)c(F)c3)cc2F)n2cc(OC(F)F)cn2)[C@@H]2C=CS(=O)(=O)C2)ccn1", "note": "(stereo partly drawn) [I-695, 2-[4-(difluoromethoxy)-1H-pyrazol-1-yl]-N-[(3R)-1,1-dioxo-2,3-dihydro-1lambda6-thiophen-3-yl]-N-[(2-methoxypyridin-4-yl)methyl]-2-{3,3′,4′-trifluoro-[1,1′-biphenyl]-4-yl}acetamide]", "IC50": "< 0.5"}, {"smiles": "COc1ccc(CC(=O)N(Cc2ccncc2)C2C=CS(=O)(=O)C2)cc1OC(F)F", "note": "(stereo not drawn) [I-697, 2-[3-(difluoromethoxy)-4-methoxyphenyl]-N-(1,1-dioxo-2,3-dihydro-1lambda6-thiophen-3-yl)-N-[(pyridin-4-yl)methyl]acetamide]", "IC50": "> 50"}, {"smiles": "O=C(Cc1ncc(-c2ccc(F)c(F)c2)cc1F)N(Cc1ccnc(OC(F)F)c1)C1C=CS(=O)(=O)C1", "note": "(stereo not drawn) [I-698, N-{[2-(difluoromethoxy)pyridin-4-yl]methyl}-2-[5-(3,4-difluorophenyl)-3-fluoropyridin-2-yl]-N-(1,1-dioxo-2,3-dihydro-1lambda6-thiophen-3-yl)acetamide]", "IC50": "0.5 to 5"}, {"smiles": "COc1cc(CN(C(=O)Cn2cc3cc(C(F)(F)F)ccc3n2)[C@@H]2C=CS(=O)(=O)C2)ccn1", "note": "[I-699, N-[(3R)-1,1-dioxo-2,3-dihydro-1lambda6-thiophen-3-yl]-N-[(2-methoxypyridin-4-yl)methyl]-2-[5-(trifluoromethyl)-2H-indazol-2-yl]acetamide]", "IC50": "0.5 to 5"}, {"smiles": "CC(C)(N)c1ccc(CN(C(=O)Cc2ccc(S(F)(F)(F)(F)F)cc2)C2C=CS(=O)(=O)C2)cc1", "note": "(stereo not drawn) [I-700, N-{[4-(2-aminopropan-2-yl)phenyl]methyl}-N-(1,1-dioxo-2,3-dihydro-1lambda6-thiophen-3-yl)-2-[4-(pentafluoro-lambda6-sulfanyl)phenyl]acetamide]", "IC50": "5 to 10"}, {"smiles": "COc1cc(CN(C(=O)C(c2ccc(-c3ccc(F)c(F)c3)cc2F)n2cc(C(F)F)cn2)[C@@H]2C=CS(=O)(=O)C2)ccn1", "note": "(stereo partly drawn) [I-705, 2-[4-(difluoromethyl)-1H-pyrazol-1-yl]-N-[(3R)-1,1-dioxo-2,3-dihydro-1lambda6-thiophen-3-yl]-N-[(2-methoxypyridin-4-yl)methyl]-2-{3,3′,4′-trifluoro-[1,1′-biphenyl]-4-yl}acetamide]", "IC50": "0.5 to 5"}, {"smiles": "COc1cc(CN(C(=O)C(c2ccc(-c3ccc(F)c(F)c3)cc2F)n2cc(C#N)cn2)[C@@H]2C=CS(=O)(=O)C2)ccn1", "note": "(stereo partly drawn) [I-706, 2-(4-cyano-1H-pyrazol-1-yl)-N-[(3R)-1,1-dioxo-2,3-dihydro-1lambda6-thiophen-3-yl]-N-[(2-methoxypyridin-4-yl)methyl]-2-{3,3′,4′-trifluoro-[1,1′-biphenyl]-4-yl}acetamide]", "IC50": "0.5 to 5"}]}]}
